Test [1] addresses T1, Estrogen receptor beta (Homo sapiens, UniProt Q92731).
Test [2] has as its target T1, Estrogen receptor beta. The source holds these as a separate data set.
The target of test [3] is T2, Estrogen receptor (Homo sapiens, UniProt P03372).
T2 sequence (P03372 whole entry): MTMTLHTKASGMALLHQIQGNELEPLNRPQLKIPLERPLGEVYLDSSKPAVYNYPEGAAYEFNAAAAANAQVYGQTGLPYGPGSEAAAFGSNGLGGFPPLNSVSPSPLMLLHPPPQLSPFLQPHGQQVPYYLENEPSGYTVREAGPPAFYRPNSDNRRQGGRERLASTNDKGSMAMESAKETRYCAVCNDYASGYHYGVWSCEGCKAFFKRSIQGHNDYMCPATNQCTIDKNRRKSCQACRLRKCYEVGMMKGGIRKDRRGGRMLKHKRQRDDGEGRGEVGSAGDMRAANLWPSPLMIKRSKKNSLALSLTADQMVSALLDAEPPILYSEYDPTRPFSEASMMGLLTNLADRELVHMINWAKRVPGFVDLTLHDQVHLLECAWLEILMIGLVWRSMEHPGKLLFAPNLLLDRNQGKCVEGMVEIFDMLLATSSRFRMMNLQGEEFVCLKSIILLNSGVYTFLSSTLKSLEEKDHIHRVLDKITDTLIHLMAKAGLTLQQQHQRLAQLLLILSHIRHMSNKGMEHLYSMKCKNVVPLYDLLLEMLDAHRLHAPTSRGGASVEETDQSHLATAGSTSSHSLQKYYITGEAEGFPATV

The target in test [4] is T2, Estrogen receptor. This is another data set of the same source.

A value given as a limit tells only on which side of the number the result lay.

T1 sequence (Q92731 whole entry): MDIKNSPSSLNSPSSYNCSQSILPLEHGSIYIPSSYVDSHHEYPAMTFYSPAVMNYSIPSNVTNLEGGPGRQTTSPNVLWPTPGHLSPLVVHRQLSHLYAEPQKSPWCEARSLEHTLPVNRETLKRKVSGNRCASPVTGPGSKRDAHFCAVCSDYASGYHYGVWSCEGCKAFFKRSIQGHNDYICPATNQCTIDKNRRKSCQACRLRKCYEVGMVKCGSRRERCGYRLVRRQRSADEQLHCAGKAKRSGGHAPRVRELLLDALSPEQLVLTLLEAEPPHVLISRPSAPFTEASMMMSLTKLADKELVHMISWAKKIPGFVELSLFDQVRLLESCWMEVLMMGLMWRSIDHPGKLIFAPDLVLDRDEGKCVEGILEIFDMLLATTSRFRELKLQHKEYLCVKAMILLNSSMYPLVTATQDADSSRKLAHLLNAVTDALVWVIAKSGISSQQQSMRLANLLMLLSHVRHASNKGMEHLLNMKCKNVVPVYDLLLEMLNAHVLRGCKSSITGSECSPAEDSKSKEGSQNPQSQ

Usually IC50 stands for the concentration at which inhibition is half-maximal. Read a high IC50 as a need for much substance. What is called Kd is the constant that tells how readily two partners part at equilibrium. The low end stands for tighter binding, the high end for weaker binding. In the case of `C[C@@H](CCO)C1=CC[C@H]2[C@@H]3CCc4cc(O)ccc4[C@H]3CC[C@]12C`, the half-maximal inhibitory concentration (IC50) was 0.275 µM at Estrogen receptor beta [1] and 0.108 µM against Estrogen receptor beta [2]. At Estrogen receptor [3], this compound displayed a Kd of 0.32 µM.

In the case of `CCCOC(=O)[C@H]1CC[C@H]2[C@@H]3CCc4cc(O)ccc4[C@H]3CC[C@]12C`, the IC50 on Estrogen receptor [4] was 0.092 µM. Also, binding on Estrogen receptor [3] was characterised by a dissociation constant (Kd) of 0.32 µM.

As for `CC[C@H](C)C1=CC[C@H]2[C@@H]3CCc4cc(O)ccc4[C@H]3CC[C@]12C`, the results for the 50% inhibitory concentration (IC50) on Estrogen receptor beta [1] and on Estrogen receptor beta [2] were 0.07 µM and 0.088 µM, respectively. On Estrogen receptor [3], this compound displayed a Kd of 0.16 µM.

Take `CC1C[C@H](C)C2(CC[C@H]3[C@@H]4CCc5cc(O)ccc5[C@H]4CC[C@@]32C)O1` (stereo partly drawn): the half-inhibitory concentration (IC50) came to 0.484 µM against Estrogen receptor [4] and 0.111 µM against Estrogen receptor beta [2]. The compound further showed a Kd at Estrogen receptor [3] of 0.16 µM.

Regarding `C[C@]12CC[C@@H]3c4ccc(O)cc4CC[C@H]3[C@@H]1CC=C2CO`, on Estrogen receptor beta [2], half-maximal inhibition (IC50) required 0.0068 µM.

With `OC[C@H]1CCC[C@@H](c2ccc(O)cc2)CC1` (racemic), the Kd on Estrogen receptor [3] was > 1 µM.
